# Assay results reported in US8575197B2, “Pyrolinone derivative and pharmaceutical composition comprising the same” (Shionogi & Co., Ltd., priority 2008, dated 2013).
# pIC50: −log10 of the molar value.
# Biological target: human P2X3 receptor (Homo sapiens (Human), UniProt P56373)
# Test: P2X3 receptor inhibition, ATP-evoked Fluo-3 calcium fluorescence (FDSS 3000)
# Assay type: cell-based
# Conditions: C6BU-1 cell transfected with human P2X3 receptor gene; ATP-evoked Fluo-3 fluorescence
# Protocol: Stably expressing cell line (C6BU-1 cell transfected with human P2X3 receptor gene (GenBank accession number Y07683)) was used. The cells were seeded in a 96-well microtiter plate at a concentration of 8000 cells/well and cultured in the medium (8.3% fetal bovine serum, 8.3% horse serum, 1% antibiotic and antifungal in DMEM) for one day at 37° C. under 5% carbon dioxide atmosphere. The medium was replaced with 4 μM Fluo-3-AM solution (pH7.5) containing 20 mM HEPES, 137 mM NaCl, 2.7 mM KCl, 0.9 mM MgCl2, 5.0 mM CaCl2, 5.6 mM D-glucose, 2.5 mM probenecid, 10% BSA, and 0.08% Pluronic F-127, and incubated at 37° C. under 5% dioxide carbon atmosphere for one hour. The plate was washed with washing buffer (20 mM HEPES, 137 mM NaCl, 2.7 mM KCl, 0.9 mM MgCl2, 5.0 mM CaCl2, 5.6 mM D-glucose, 2.5 mM probenecid, pH7.5), and each well was added with 40 μL of this buffer. The plate was placed in High-Throughput Screening System FDSS 3000 (Hamamatsu Photonics K.K.). Measurement of fluorescence intensity by FDSS 3000 was started, and 40 μL of DMSO solutions containing different concentrations of the test compound as prepared by dilution with dilution buffer (20 mM HEPES, 137 mM NaCl, 2.7 mM KCl, 0.9 mM MgCl2, 5.0 mM CaCl2, 5.6 mM D-glucose, 2.5 mM probenecid, 0.1% Pluronic F-127, pH7.5) were dispensed to each well through the built-in automatic dispenser. Five minutes after, 40 nM ATP solution (50 μL) prepared by dilution with the dilution buffer was dispensed through the built-in automatic dispenser, and the measurement of fluorescence intensity was continued for 3 min. For each well, the specific maximum fluorescence intensity was calculated as the ratio of the maximum fluorescence intensity after addition of the ATP solution to the fluorescence intensity at the starting of the measurement. […] FDSS software (Hamamatsu Photonics K.K.) was used for calculation of the specific maximum fluorescence intensity. IC50 was calculated using Microsoft™ Excel™ (Microsoft Corporation) and XLfit™ (ID Business Solutions Ltd.).
# Sequence of human P2X3 receptor (P56373 whole entry): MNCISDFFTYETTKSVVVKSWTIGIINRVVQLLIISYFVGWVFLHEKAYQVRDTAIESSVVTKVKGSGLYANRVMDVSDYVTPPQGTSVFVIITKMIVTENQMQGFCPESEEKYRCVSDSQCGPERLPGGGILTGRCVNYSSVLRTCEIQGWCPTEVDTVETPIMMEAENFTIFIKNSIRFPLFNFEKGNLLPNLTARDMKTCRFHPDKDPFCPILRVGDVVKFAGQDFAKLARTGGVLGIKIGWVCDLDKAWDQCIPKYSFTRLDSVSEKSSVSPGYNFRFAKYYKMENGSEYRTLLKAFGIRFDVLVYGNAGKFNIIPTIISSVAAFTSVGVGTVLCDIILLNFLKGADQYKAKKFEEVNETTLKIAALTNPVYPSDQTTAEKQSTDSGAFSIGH
row,Compound,pIC50
1,COc1ccccc1C1C(C(=O)C(C)(C)C)=C(O)C(=O)N1c1ccc(-c2ccsc2Cl)cc1 (stereo not drawn) [Compound I-192],6.21
2,COc1ccccc1C1C(C(=O)C(C)(C)C)=C(O)C(=O)N1c1ccc(-c2cscc2C)cc1 (stereo not drawn) [Compound I-193],6.00
3,COCc1ncccc1C1C(C(=O)C(C)C)=C(O)C(=O)N1c1ccc(-c2ccsc2)cc1 (stereo not drawn) [Compound I-194],7.20
4,CC(C)C(=O)C1=C(O)C(=O)N(c2ccc(-c3ccsc3)cc2)C1c1cccnc1OCC(=O)O (stereo not drawn) [Compound I-195],6.63
5,COc1ccccc1C1C(C(=O)C(C)(C)C)=C(O)C(=O)N1c1ccc(-c2csc(C)c2)cc1 (stereo not drawn) [Compound I-197],7.44
6,COc1ccccc1C1C(C(=O)C(C)C)=C(O)C(=O)N1c1ccc(-c2ccoc2)cc1 (stereo not drawn) [Compound I-198],7.19
7,CNC(=O)COc1ncccc1C1C(C(=O)C(C)C)=C(O)C(=O)N1c1ccc(-c2ccsc2)cc1 (stereo not drawn) [Compound I-199],7.72
8,CC(C)C(=O)C1=C(O)C(=O)N(c2ccc(-c3ccsc3)cc2)C1c1cccnc1OCC(N)=O (stereo not drawn) [Compound I-200],7.85
9,COCCOc1ccccc1C1C(C(=O)C(C)C)=C(O)C(=O)N1c1ccc(-c2ccoc2)cc1 (stereo not drawn) [Compound I-201],7.41
10,COc1ccccc1[C@@H]1C(C(=O)C(C)C)=C(O)C(=O)N1c1ccc(-c2ccoc2)cc1 [Compound I-202],7.40
11,COCc1ccccc1C1C(C(=O)C(C)C)=C(O)C(=O)N1c1ccc(-c2ccoc2)cc1 (stereo not drawn) [Compound I-204],7.37
12,COCCOc1ccccc1[C@@H]1C(C(=O)C(C)C)=C(O)C(=O)N1c1ccc(-c2ccoc2)cc1 [Compound I-208],7.85
13,COCCOc1ccccc1[C@H]1C(C(=O)C(C)C)=C(O)C(=O)N1c1ccc(-c2ccoc2)cc1 [Compound I-209],6.63
14,COc1ccccc1C1C(C(=O)C(C)(C)C)=C(O)C(=O)N1c1ccc(-c2ccc(C)s2)cc1 (stereo not drawn) [Compound I-210],7.33
15,COc1ccccc1C1C(C(=O)c2ccco2)=C(O)C(=O)N1c1ccc(-c2ccsc2)cc1 (stereo not drawn) [Compound I-211],6.80
16,CC(=O)N(C)c1ccccc1C1C(C(=O)C(C)C)=C(O)C(=O)N1c1ccc(-c2ccsc2)cc1 (stereo not drawn) [Compound I-212],7.04
17,COCOc1ccccc1C1C(C(=O)C(C)C)=C(O)C(=O)N1c1ccc(-c2ccsc2)cc1 (stereo not drawn) [Compound I-213],8.22
18,COc1ccccc1C1C(C(=O)C(C)C)=C(O)C(=O)N1c1ccc(-c2cccs2)cc1 (stereo not drawn) [Compound I-214],7.66
19,COCc1ccccc1C1C(C(=O)C(C)C)=C(O)C(=O)N1c1ccc(-c2cccs2)cc1 (stereo not drawn) [Compound I-215],7.89
20,CCOC(=O)C1C(C(=O)C(C)C)=C(O)C(=O)N1c1ccc(-c2ccsc2)cc1 (stereo not drawn) [Compound I-216],6.17
21,CC(C)C(=O)C1=C(O)C(=O)N(c2ccc(-c3ccsc3)cc2)C1c1ccccc1OCc1nnn[nH]1 (stereo not drawn) [Compound I-217],7.92

row,Compound,pIC50
1,COc1ccccc1C1C(C(=O)C2CC2)=C(O)C(=O)N1c1ccc(-c2ccsc2)cc1 (stereo not drawn) [Compound I-218],7.14
2,CC(C)C(=O)C1=C(O)C(=O)N(c2ccc(-c3ccsc3)cc2)C1c1ccccn1 (stereo not drawn) [Compound I-219],6.49
3,CC(C)C(=O)C1=C(O)C(=O)N(c2ccc(-c3ccsc3)cc2)C1c1ccccc1OCC(=N)NO (stereo not drawn) [Compound I-220],8.30
4,COc1cc(N2C(=O)C(O)=C(C(=O)C(C)C)C2c2ccccc2OC)ccc1-c1ccsc1 (stereo not drawn) [Compound I-221],7.09
5,COCCOc1ccccc1[C@@H]1C(C(=O)C(C)C)=C(O)C(=O)N1c1ccc(-c2ccsc2)cc1 [Compound I-222],8.22
6,CC(C)C(=O)C1=C(O)C(=O)N(c2ccc(-c3cccs3)cc2)C1c1ccccc1OCCO (stereo not drawn) [Compound I-223],7.92
7,COc1ccccc1C1C(C(=O)C(C)C)=C(O)C(=O)N1c1ccc(-c2ccco2)cc1 (stereo not drawn) [Compound I-224],7.14
8,CC(C)C(=O)C1=C(O)C(=O)N(c2ccc(-c3ccco3)cc2)C1c1ccccc1OCCO (stereo not drawn) [Compound I-225],7.19
9,COCCOc1ccccc1C1C(C(=O)C(C)C)=C(O)C(=O)N1c1ccc(-c2cccs2)cc1 (stereo not drawn) [Compound I-226],7.92
10,COCOc1ccccc1C1C(C(=O)C(C)C)=C(O)C(=O)N1c1ccc(-c2cccs2)cc1 (stereo not drawn) [Compound I-227],8.10
11,COCCOc1ncccc1C1C(C(=O)C(C)C)=C(O)C(=O)N1c1ccc(-c2cccs2)cc1 (stereo not drawn) [Compound I-228],7.82
12,CC(C)C(=O)C1=C(O)C(=O)N(c2ccc(-c3cccs3)cc2)C1c1cccnc1OCCO (stereo not drawn) [Compound I-229],7.54
13,COCOc1ccccc1C1C(C(=O)C(C)C)=C(O)C(=O)N1c1ccc(-c2ccco2)cc1 (stereo not drawn) [Compound I-230],7.74
14,COCCOc1ccccc1C1C(C(=O)C(C)C)=C(O)C(=O)N1c1ccc(-c2ccco2)cc1 (stereo not drawn) [Compound I-231],7.64
15,COCOc1ccccc1C1C(C(=O)C(C)C)=C(O)C(=O)N1c1ccc(-c2ccoc2)cc1 (stereo not drawn) [Compound I-232],7.62
16,CC(C)C(=O)C1=C(O)C(=O)N(c2ccc(-c3ccoc3)cc2)C1c1cccnc1OCCO (stereo not drawn) [Compound I-233],6.91
17,COCCOc1ncccc1C1C(C(=O)C(C)C)=C(O)C(=O)N1c1ccc(-c2ccoc2)cc1 (stereo not drawn) [Compound I-234],7.25
18,COc1ccccc1C1C(C(=O)C(C)C)=C(O)C(=O)N1c1ccc(-c2ccsc2)c(F)c1 (stereo not drawn) [Compound I-235],7.46
19,COc1ccccc1C1C(C(=O)C(C)C)=C(O)C(=O)N1c1ccc(-c2ccsc2)c(C)c1 (stereo not drawn) [Compound I-236],6.37
20,COc1ccccc1C1C(C(=O)C(C)C)=C(O)C(=O)N1c1ccc(-c2ccsc2)c(N)c1 (stereo not drawn) [Compound I-237],6.15
21,COc1ccccc1C1C(C(=O)CC(C)C)=C(O)C(=O)N1c1ccc(-c2ccsc2)cc1 (stereo not drawn) [Compound I-239],7.46

row,Compound,pIC50
1,COc1ccccc1C1C(C(=O)C(C)C)=C(O)C(=O)N1c1ccc(-c2ccsc2)c(O)c1 (stereo not drawn) [Compound I-240],6.73
2,COc1ccccc1C1C(C(=O)C(C)C)=C(O)C(=O)N1c1ccc(-c2ccsc2)c(CO)c1 (stereo not drawn) [Compound I-241],6.09
3,COc1ccccc1C1C(C(=O)C(C)C)=C(O)C(=O)N1c1ccc(-c2ccsc2)c(N(C)C)c1 (stereo not drawn) [Compound I-242],6.45
4,CC(C)C(=O)C1=C(O)C(=O)N(c2ccc(-c3ccsc3)cc2)C1c1ccccc1C#N (stereo not drawn) [Compound I-244],7.57
5,CC(C)C(=O)C1=C(O)C(=O)N(c2ccc(-c3ccsc3)cc2)C1c1ccccc1C(=O)N(C)C (stereo not drawn) [Compound I-245],7.33
6,COCCc1ccccc1C1C(C(=O)C(C)C)=C(O)C(=O)N1c1ccc(-c2ccsc2)cc1 (stereo not drawn) [Compound I-247],7.82
7,COCCOc1ncccc1C1C(C(=O)CC(C)C)=C(O)C(=O)N1c1ccc(-c2ccsc2)cc1 (stereo not drawn) [Compound I-248],7.52
8,COCOc1ccccc1C1C(C(=O)CC(C)C)=C(O)C(=O)N1c1ccc(-c2ccsc2)cc1 (stereo not drawn) [Compound I-249],8.00
9,CC(C)CC(=O)C1=C(O)C(=O)N(c2ccc(-c3ccsc3)cc2)C1c1ccccc1OCCO (stereo not drawn) [Compound I-250],7.54
10,COCCOc1ccccc1C1C(C(=O)CC(C)C)=C(O)C(=O)N1c1ccc(-c2ccsc2)cc1 (stereo not drawn) [Compound I-251],7.77
11,COCc1ccccc1C1C(C(=O)CC(C)C)=C(O)C(=O)N1c1ccc(-c2ccsc2)cc1 (stereo not drawn) [Compound I-252],8.00
12,CNC(=C(C)C)C1=C(O)C(=O)N(c2ccc(-c3ccsc3)cc2)C1c1cccnc1O (stereo not drawn) [Compound I-253],6.71
13,COCc1ccccc1[C@H]1C(C(=O)C(C)C)=C(O)C(=O)N1c1ccc(-c2ccsc2)cc1 [Compound I-254],6.29
14,COCc1ccccc1[C@@H]1C(C(=O)C(C)C)=C(O)C(=O)N1c1ccc(-c2ccsc2)cc1 [Compound I-255],8.10
15,Cc1cc(-c2ccc(N3C(=O)C(O)=C(C(=O)C(C)C)C3c3ccccc3OCCO)cc2)cs1 (stereo not drawn) [Compound I-256],7.64
16,COc1ccccc1C1C(C(=O)C(C)C)=C(O)C(=O)N1c1ccc(-c2csc(C)c2)cc1 (stereo not drawn) [Compound I-257],7.43
17,Cc1ccc(-c2ccc(N3C(=O)C(O)=C(C(=O)C(C)C)C3c3ccccc3OCCO)cc2)s1 (stereo not drawn) [Compound I-258],7.62
18,COc1ccccc1C1C(C(=O)C(C)C)=C(O)C(=O)N1c1ccc(-c2ccc(C)s2)cc1 (stereo not drawn) [Compound I-259],7.52
19,COCCOc1ccccc1C1C(C(=O)C(C)C)=C(O)C(=O)N1c1ccc(-c2csc(C)c2)cc1 (stereo not drawn) [Compound I-261],7.72
20,COCOc1ccccc1C1C(C(=O)C(C)C)=C(O)C(=O)N1c1ccc(-c2csc(C)c2)cc1 (stereo not drawn) [Compound I-262],7.80
21,COCCOc1ccccc1C1C(C(=O)C(C)C)=C(O)C(=O)N1c1ccc(-c2ccc(C)s2)cc1 (stereo not drawn) [Compound I-263],8.10
